The kinase profiling compilation of Christmann-Franck et al. (2016)
“And” between values parts separate entries of the source, which are not always exact repeats. Identical values can stand only once.

How the values were obtained:
Experiment in all cases: radiometric filter-binding kinase assay, Kinase HotSpot
Conditions in all cases: compound 0.5 µM; ATP 10 µM
[1] = target: PKN2 (human) (UniProt Q16513)
[2] = target: MAP3K3 (human) (UniProt Q99759)
[3] = target: MARK4 (human) (UniProt Q96L34)
[4] = target: RPS6KA4 KD2 (human) (UniProt O75676)
[5] = target: TEK (human) (UniProt Q02763)
[6] = target: MAP3K10 (human) (UniProt Q02779)
[7] = target: PRKG1 (human) (UniProt Q13976)
[8] = target: PRKD1 (human) (UniProt Q15139)
[9] = target: PDGFRA (human) (UniProt P16234)
[10] = target: CDK6 CCND3 (human) (UniProt P30281+Q00534)
[11] = target: ABL1 (human) (UniProt P00519)
Sequence of ABL1 (human) (P00519 whole entry, looked up): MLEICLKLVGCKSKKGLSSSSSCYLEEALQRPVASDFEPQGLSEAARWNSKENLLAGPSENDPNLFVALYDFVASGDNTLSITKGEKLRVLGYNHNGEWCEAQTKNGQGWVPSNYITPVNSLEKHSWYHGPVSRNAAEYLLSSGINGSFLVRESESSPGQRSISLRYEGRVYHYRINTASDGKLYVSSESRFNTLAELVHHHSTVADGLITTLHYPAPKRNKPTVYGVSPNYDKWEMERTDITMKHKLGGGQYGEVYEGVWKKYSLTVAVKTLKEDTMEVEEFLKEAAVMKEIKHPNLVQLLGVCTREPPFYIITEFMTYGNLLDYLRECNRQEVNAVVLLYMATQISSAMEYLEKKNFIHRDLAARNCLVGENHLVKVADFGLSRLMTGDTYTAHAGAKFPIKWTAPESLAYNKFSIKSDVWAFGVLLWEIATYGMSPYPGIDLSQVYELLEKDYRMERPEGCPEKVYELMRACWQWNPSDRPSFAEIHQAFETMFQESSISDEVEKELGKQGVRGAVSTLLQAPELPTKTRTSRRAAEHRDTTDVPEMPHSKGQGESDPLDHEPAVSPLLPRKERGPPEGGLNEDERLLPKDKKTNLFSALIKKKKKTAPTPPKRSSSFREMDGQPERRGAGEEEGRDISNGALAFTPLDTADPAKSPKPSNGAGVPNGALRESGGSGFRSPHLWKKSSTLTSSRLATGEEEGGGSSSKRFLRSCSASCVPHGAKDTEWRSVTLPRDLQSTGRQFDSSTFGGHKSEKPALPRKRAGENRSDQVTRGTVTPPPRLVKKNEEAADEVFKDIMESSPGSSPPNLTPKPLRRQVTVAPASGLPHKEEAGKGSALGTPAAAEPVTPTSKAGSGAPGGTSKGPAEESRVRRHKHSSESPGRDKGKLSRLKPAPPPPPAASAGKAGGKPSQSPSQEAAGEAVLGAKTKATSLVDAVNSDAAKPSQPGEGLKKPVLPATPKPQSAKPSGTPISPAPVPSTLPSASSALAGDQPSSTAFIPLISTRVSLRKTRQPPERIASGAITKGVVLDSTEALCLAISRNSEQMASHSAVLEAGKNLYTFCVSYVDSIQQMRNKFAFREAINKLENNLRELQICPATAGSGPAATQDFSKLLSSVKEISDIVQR

[12] = target: MAPKAPK3 (human) (UniProt Q16644)
[13] = target: TYRO3 (human) (UniProt Q06418)
[14] = target: CAMK1D (human) (UniProt Q8IU85)
[15] = target: MAP3K9 (human) (UniProt P80192)
[16] = target: LYN (human) (UniProt P07948)
[17] = target: STK4 (human) (UniProt Q13043)
[18] = target: SRPK1 (human) (UniProt Q96SB4)
[19] = target: CSNK1G3 (human) (UniProt Q9Y6M4)
Sequence of CSNK1G3 (human) (Q9Y6M4 whole entry, looked up): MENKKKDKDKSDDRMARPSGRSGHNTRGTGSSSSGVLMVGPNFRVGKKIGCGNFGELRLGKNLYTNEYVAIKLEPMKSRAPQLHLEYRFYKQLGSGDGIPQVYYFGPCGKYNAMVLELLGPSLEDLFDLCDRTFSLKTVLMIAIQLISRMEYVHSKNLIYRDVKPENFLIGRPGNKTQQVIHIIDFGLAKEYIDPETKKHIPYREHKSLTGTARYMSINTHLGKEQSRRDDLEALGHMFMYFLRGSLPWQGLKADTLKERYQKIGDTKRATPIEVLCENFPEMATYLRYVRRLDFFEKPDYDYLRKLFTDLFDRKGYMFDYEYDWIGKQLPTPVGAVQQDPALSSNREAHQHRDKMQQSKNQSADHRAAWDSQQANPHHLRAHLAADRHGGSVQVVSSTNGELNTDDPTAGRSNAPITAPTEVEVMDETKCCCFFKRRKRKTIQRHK

[20] = target: ACVRL1 (human) (UniProt P37023)
[21] = target: EPHB2 (human) (UniProt P29323)
[22] = target: PIM2 (human) (UniProt Q9P1W9)
Sequence of PIM2 (human) (Q9P1W9 whole entry, looked up): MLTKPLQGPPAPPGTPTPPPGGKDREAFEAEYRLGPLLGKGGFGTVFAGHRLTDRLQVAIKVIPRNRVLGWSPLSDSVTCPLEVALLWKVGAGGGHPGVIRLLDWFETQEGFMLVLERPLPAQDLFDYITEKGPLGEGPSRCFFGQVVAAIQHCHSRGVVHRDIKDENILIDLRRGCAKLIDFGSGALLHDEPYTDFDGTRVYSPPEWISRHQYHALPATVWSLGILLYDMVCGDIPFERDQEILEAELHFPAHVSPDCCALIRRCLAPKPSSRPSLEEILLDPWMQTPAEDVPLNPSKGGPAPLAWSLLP

[23] = target: MAP3K14 (human) (UniProt Q99558)
[24] = target: MAP3K11 (human) (UniProt Q16584)
Sequence of MAP3K11 (human) (Q16584 whole entry, looked up): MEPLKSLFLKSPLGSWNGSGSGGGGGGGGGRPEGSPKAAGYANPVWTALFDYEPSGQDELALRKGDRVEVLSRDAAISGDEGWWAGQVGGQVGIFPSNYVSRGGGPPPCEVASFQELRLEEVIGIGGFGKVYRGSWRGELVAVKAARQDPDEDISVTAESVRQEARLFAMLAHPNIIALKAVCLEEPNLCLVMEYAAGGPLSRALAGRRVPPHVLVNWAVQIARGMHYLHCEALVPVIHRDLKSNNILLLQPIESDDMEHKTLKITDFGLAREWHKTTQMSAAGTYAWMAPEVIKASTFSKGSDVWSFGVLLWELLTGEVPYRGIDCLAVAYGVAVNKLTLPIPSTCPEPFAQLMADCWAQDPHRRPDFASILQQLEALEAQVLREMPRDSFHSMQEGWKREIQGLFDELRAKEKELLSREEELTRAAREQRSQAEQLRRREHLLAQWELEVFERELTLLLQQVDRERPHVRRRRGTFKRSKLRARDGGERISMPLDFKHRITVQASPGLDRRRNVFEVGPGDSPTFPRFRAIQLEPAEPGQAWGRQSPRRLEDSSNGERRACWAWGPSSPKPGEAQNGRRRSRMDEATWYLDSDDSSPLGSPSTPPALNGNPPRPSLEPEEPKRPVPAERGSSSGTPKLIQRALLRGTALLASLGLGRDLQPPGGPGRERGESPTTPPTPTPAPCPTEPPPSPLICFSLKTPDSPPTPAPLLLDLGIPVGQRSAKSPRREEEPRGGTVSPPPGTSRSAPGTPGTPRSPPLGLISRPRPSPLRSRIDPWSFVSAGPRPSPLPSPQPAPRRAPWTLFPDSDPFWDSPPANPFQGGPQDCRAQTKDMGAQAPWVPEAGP

[25] = target: PRKCB2 (human) (UniProt P05771)
[26] = target: HCK (human) (UniProt P08631)
Sequence of HCK (human) (P08631 whole entry, looked up): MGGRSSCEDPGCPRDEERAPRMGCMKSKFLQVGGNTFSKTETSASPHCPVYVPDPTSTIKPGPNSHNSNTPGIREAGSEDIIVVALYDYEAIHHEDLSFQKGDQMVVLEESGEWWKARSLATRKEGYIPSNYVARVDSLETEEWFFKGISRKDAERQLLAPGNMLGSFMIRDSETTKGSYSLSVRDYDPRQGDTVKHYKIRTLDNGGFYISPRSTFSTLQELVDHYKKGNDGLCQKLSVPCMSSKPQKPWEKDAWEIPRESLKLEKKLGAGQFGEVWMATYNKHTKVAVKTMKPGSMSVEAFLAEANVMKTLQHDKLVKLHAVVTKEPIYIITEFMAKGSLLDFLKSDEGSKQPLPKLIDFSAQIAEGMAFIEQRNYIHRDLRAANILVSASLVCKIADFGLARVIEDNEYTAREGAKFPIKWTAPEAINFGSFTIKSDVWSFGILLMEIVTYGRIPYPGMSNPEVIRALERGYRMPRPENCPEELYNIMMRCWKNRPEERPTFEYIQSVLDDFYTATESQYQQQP

[27] = target: PLK2 (human) (UniProt Q9NYY3)
Sequence of PLK2 (human) (Q9NYY3 whole entry, looked up): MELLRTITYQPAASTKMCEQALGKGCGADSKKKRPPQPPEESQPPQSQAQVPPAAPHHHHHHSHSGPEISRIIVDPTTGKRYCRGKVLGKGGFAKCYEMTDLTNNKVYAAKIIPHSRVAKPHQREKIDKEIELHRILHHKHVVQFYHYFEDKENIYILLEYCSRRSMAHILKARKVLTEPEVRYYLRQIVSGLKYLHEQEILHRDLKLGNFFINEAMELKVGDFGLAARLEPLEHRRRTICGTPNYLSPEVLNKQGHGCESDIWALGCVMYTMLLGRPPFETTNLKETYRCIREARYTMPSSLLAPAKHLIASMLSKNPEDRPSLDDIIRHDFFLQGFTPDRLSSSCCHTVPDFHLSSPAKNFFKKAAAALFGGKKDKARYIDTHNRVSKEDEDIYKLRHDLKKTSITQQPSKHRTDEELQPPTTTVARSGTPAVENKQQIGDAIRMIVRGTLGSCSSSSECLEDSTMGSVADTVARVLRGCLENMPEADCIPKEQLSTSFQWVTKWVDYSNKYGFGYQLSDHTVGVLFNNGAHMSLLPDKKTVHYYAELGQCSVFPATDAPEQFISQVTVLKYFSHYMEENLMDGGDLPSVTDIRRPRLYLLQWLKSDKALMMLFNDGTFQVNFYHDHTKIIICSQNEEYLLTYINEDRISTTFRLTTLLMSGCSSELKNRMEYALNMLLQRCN

[28] = target: RPS6KB2 (human) (UniProt Q9UBS0)
[29] = target: EPHA5 (human) (UniProt P54756)
[30] = target: MAP4K2 (human) (UniProt Q12851)
[31] = target: WNK3 (human) (UniProt Q9BYP7)
[32] = target: PRKCA (human) (UniProt P17252)
[33] = target: MAP4K5 (human) (UniProt Q9Y4K4)
[34] = target: AURKB (human) (UniProt Q96GD4)
[35] = target: CDK5 CDK5R1 p35 (human) (UniProt Q00535+Q15078)
[36] = target: EGFR (human) (UniProt P00533)
[37] = target: JAK1 JH1 catalytic (human) (UniProt P23458)
[38] = target: STK39 (human) (UniProt Q9UEW8)
[39] = target: CLK3 (human) (UniProt P49761)
[40] = target: SLK (human) (UniProt Q9H2G2)
[41] = target: TNK2 (human) (UniProt Q07912)
Sequence of TNK2 (human) (Q07912 whole entry, looked up): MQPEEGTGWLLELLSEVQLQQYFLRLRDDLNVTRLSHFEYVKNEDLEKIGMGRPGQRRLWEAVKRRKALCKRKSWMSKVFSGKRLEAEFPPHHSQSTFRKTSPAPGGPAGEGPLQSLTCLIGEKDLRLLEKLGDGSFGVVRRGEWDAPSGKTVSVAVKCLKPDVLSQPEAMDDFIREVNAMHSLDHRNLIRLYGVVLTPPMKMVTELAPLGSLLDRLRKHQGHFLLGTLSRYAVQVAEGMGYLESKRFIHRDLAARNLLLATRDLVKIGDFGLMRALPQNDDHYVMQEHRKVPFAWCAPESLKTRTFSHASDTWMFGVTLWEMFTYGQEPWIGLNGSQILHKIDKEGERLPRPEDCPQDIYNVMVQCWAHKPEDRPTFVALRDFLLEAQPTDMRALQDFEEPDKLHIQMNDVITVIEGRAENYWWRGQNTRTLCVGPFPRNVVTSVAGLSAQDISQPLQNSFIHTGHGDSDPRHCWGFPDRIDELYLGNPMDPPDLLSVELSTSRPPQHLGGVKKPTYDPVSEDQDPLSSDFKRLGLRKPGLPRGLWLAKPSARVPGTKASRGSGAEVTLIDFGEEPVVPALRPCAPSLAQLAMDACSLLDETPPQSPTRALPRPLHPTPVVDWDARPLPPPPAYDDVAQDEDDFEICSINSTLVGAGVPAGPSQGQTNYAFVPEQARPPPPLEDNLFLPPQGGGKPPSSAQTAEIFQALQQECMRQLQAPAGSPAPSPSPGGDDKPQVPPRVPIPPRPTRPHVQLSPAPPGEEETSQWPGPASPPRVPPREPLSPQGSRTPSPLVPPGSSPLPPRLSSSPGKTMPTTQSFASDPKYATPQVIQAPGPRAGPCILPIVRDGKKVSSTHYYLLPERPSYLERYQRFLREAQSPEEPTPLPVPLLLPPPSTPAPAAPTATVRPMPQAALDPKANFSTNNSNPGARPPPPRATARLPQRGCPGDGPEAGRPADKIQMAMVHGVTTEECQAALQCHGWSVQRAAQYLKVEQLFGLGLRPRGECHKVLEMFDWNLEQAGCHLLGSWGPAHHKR

[42] = target: IGF1R (human) (UniProt P08069)

For `O=C(O)/C=C/c1cc(Br)c(Br)c(Br)c1Br`, the residual activity [1] was 95.6%, the residual activity [2] was 105% and the residual activity [3] was 93.1%. It also gave a residual activity [4] of 103%, a residual activity [5] of 94.4% and a residual activity [6] of 92.3%. The residual activity [7] was 78.9% and 89%, the residual activity [8] was 88.9% and the residual activity [9] was 105%. The residual activity [10] was 102%, the residual activity [11] was 81.5% and the residual activity [12] was 86.3%. It also gave a residual activity [13] of 93.3%, a residual activity [14] of 98.1% and a residual activity [15] of 101%. The residual activity [16] was 102% and 99.3%, the residual activity [17] was 102% and the residual activity [18] was 79.3%. For the same compound, the residual activity [19] was 92.1%, the residual activity [20] was 103% and the residual activity [21] was 103%. The residual activity [22] was 52.8%, the residual activity [23] was 100% and the residual activity [24] was 96.3%. For the same compound, the residual activity [25] was 84.7%, the residual activity [26] was 99.9% and the residual activity [27] was 51.5%. The residual activity [28] was 93.8%, the residual activity [29] was 88.7% and the residual activity [30] was 89.3%. The residual activity [31] was 89.8%, the residual activity [32] was 79% and the residual activity [33] was 80.3%. The residual activity [34] was 88.5%, the residual activity [35] was 92.4% and the residual activity [36] was 98.4%. It also gave a residual activity [37] of 98.8%, a residual activity [38] of 97.9% and a residual activity [39] of 96.1%. The residual activity [40] was 96%, the residual activity [41] was 110% and the residual activity [42] was 96%.
With `CN(C)C[C@H]1CCn2c(c(C3=C(c4cn(C)c5ccccc45)C(=O)NC3=O)c3ccccc32)C1` the residual activity [1] was 87%, the residual activity [2] was 86.1% and the residual activity [3] was 93.9%. The residual activity [4] was 33.3%, the residual activity [5] was 98.4% and the residual activity [6] was 102%. The residual activity [7] was 81% and 88.8%, the residual activity [8] was 101% and the residual activity [9] was 93.1%. For the same compound, the residual activity [10] was 95%, the residual activity [11] was 98% and the residual activity [12] was 97.9%. For the same compound, the residual activity [13] was 99.3%, the residual activity [14] was 101% and the residual activity [15] was 90.8%. The residual activity [16] was 100% and 98.3%, the residual activity [17] was 80.1% and the residual activity [18] was 103%. It also gave a residual activity [19] of 104%, a residual activity [20] of 98.5% and a residual activity [21] of 110%. For the same compound, the residual activity [22] was 102%, the residual activity [23] was 105% and the residual activity [24] was 95.2%. For the same compound, the residual activity [25] was 2.29%, the residual activity [26] was 95.3% and the residual activity [27] was 99.9%. For the same compound, the residual activity [28] was 67.6%, the residual activity [29] was 95.1% and the residual activity [30] was 99%. For the same compound, the residual activity [31] was 100%, the residual activity [32] was 2.58% and the residual activity [33] was 99.9%. The residual activity [34] was 96.3%, the residual activity [35] was 85.4% and the residual activity [36] was 95.8%. For the same compound, the residual activity [37] was 108%, the residual activity [38] was 102% and the residual activity [39] was 94.7%. The residual activity [40] was 83.1%, the residual activity [41] was 96.3% and the residual activity [42] was 101%.
`O=C(Nc1cccc(Nc2cc(Nc3cccc(C(F)(F)F)c3)ncn2)c1)C1CC1` showed a residual activity [1] of 95.9%, a residual activity [2] of 95.2% and a residual activity [3] of 101%. It also gave a residual activity [4] of 100%, a residual activity [5] of 101% and a residual activity [6] of 101%. For the same compound, the residual activity [7] was 90.6% and 96.4%, the residual activity [8] was 100% and the residual activity [9] was 86.4%. It also gave a residual activity [10] of 102%, a residual activity [11] of 103% and a residual activity [12] of 104%. The residual activity [13] was 85.4%, the residual activity [14] was 100% and the residual activity [15] was 107%. For the same compound, the residual activity [16] was 102% and 99.1%, the residual activity [17] was 99% and the residual activity [18] was 86.4%. The residual activity [19] was 107%, the residual activity [20] was 114% and the residual activity [21] was 88.6%. It also gave a residual activity [22] of 104%, a residual activity [23] of 77.9% and a residual activity [24] of 97.7%. For the same compound, the residual activity [25] was 107%, the residual activity [26] was 99% and the residual activity [27] was 109%. For the same compound, the residual activity [28] was 103%, the residual activity [29] was 106% and the residual activity [30] was 116%. It also gave a residual activity [31] of 100%, a residual activity [32] of 101% and a residual activity [33] of 96.1%. It also gave a residual activity [34] of 98.9%, a residual activity [35] of 99.5% and a residual activity [36] of 5.82%. It also gave a residual activity [37] of 103%, a residual activity [38] of 94.1% and a residual activity [39] of 102%. The residual activity [40] was 102%, the residual activity [41] was 98.7% and the residual activity [42] was 105%.
`CC(C)c1nn(-c2c(Cl)cccc2Cl)c2nc(Cc3ccc(OCCO)cc3)nc(O)c12` gave a residual activity [1] of 97.5%, a residual activity [2] of 110% and a residual activity [3] of 99.5%. It also gave a residual activity [4] of 95.3%, a residual activity [5] of 100% and a residual activity [6] of 90.3%. For the same compound, the residual activity [7] was 92.3% and 99%, the residual activity [8] was 103% and the residual activity [9] was 91.6%. For the same compound, the residual activity [10] was 46.6%, the residual activity [11] was 95.6% and the residual activity [12] was 89.2%. It also gave a residual activity [13] of 97.8%, a residual activity [14] of 102% and a residual activity [15] of 95.7%. The residual activity [16] was 102% and 92.7%, the residual activity [17] was 96.7% and the residual activity [18] was 97.4%. The residual activity [19] was 95.7%, the residual activity [20] was 103% and the residual activity [21] was 92.5%. For the same compound, the residual activity [22] was 104%, the residual activity [23] was 97.3% and the residual activity [24] was 101%. It also gave a residual activity [25] of 96.7%, a residual activity [26] of 94.7% and a residual activity [27] of 99.8%. The residual activity [28] was 106%, the residual activity [29] was 110% and the residual activity [30] was 106%. For the same compound, the residual activity [31] was 96.7%, the residual activity [32] was 89.9% and the residual activity [33] was 89.9%. It also gave a residual activity [34] of 104%, a residual activity [35] of 9.64% and a residual activity [36] of 95.2%. For the same compound, the residual activity [37] was 101%, the residual activity [38] was 99.9% and the residual activity [39] was 91.3%. For the same compound, the residual activity [40] was 86.9%, the residual activity [41] was 98.9% and the residual activity [42] was 24.8%.
